Measurements published in PubChem BioAssay (NCI).
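Dose response: 5 concentrations. Exposure: 48 h. Format: 96-well plates. Endpoint: linear interpolation; highest concentration if not reached. GI50 marks 50% less growth. TGI: concentration producing complete growth inhibition.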

These compounds were tested on OVCAR-5 ovarian (assay: DTP human tumour cell line panel, 48 h).

| Compound | TGI |
| --- | --- |
| Cc1ccc(-c2cc(=O)c3cc(C)c(C)c(C(=O)O)c3o2)cc1C | > 100 µM |
| O=C(/C=C/c1c(O)ccc2ccccc12)c1ccccc1 | > 100 µM |
| Cc1nc2ccccc2c(=O)n1-c1ccccc1F | > 100 µM |
| CC(C)N1CN(C(C(=O)N[C@@H]2C(=O)N3C2SC(C)(C)C3C(=O)O)c2ccccc2)CSC1=S (some centres not stated) | > 100 µM |
| CC(C)c1cc2c(O)c(c1)Cc1cc(C(C)C)cc(c1O)Cc1cc(C(C)C)cc(c1O)Cc1cc(C(C)C)cc(c1O)C2 | > 100 µM |
| COc1ccc(CNc2nc3cc(C(F)(F)F)ccc3nc2C)cc1OC | > 100 µM |
| COc1cccc(/C=C2\C(=O)N(C(=O)c3ccc(NC(C)=O)cc3)N=C2C)c1 | > 100 µM |
| COC(C(O)c1ccc2c(c1)OCO2)P(=O)(c1ccccc1)c1ccccc1 (configuration not stated) | > 100 µM |
| N#C/C(=C\c1cc2ccccc2c2ccccc12)c1ccccc1 | 98.6 µM |
| CCOc1ccc2c(c1)[n+]([O-])c(-c1nc3ccccc3s1)c(N)[n+]2[O-] | > 100 µM |
| CS(=O)(=O)c1cc(=O)c2ccccc2s1 | 22.3 µM |
| Cc1ccc2c(c1)CN(C(=O)CCC(=O)OCc1ccccc1)c1ccc(C)cc1CN2C(=O)CCC(=O)OCc1ccccc1 | > 100 µM |
| CC(=O)N1C/C(=C\c2ccc(N(C)C)cc2)C(=O)/C(=C/c2ccc(N(C)C)cc2)C1 | > 100 µM |
| Cc1[nH]c2ccccc2c1C1Cc2ccccc2N1C(=O)/C(Cl)=C/c1ccccc1 (configuration not stated) | > 100 µM |

Each compound was assayed on SNB-75 CNS (assay: DTP human tumour cell line panel, 48 h).

| Compound | TGI |
| --- | --- |
| Cc1ccc(-c2cc(=O)c3cc(C)c(C)c(C(=O)O)c3o2)cc1C | > 100 µM |
| O=C(/C=C/c1c(O)ccc2ccccc12)c1ccccc1 | 4.52 µM |
| Cc1nc2ccccc2c(=O)n1-c1ccccc1F | > 100 µM |
| CC(C)N1CN(C(C(=O)N[C@@H]2C(=O)N3C2SC(C)(C)C3C(=O)O)c2ccccc2)CSC1=S (some centres not stated) | > 100 µM |
| CC(C)c1cc2c(O)c(c1)Cc1cc(C(C)C)cc(c1O)Cc1cc(C(C)C)cc(c1O)Cc1cc(C(C)C)cc(c1O)C2 | > 100 µM |
| COc1ccc(/C=C\c2cc(OC)c(OC)c(OC)c2)cc1OC(=O)NCCN(C)C | 32.8 µM |
| COc1ccc(CNc2nc3cc(C(F)(F)F)ccc3nc2C)cc1OC | 61.4 µM |
| COc1cccc(/C=C2\C(=O)N(C(=O)c3ccc(NC(C)=O)cc3)N=C2C)c1 | > 100 µM |
| COC(C(O)c1ccc2c(c1)OCO2)P(=O)(c1ccccc1)c1ccccc1 (configuration not stated) | > 100 µM |
| N#C/C(=C\c1cc2ccccc2c2ccccc12)c1ccccc1 | 10.9 µM |
| CCOc1ccc2c(c1)[n+]([O-])c(-c1nc3ccccc3s1)c(N)[n+]2[O-] | > 100 µM |
| CS(=O)(=O)c1cc(=O)c2ccccc2s1 | 31 µM |
| Cc1ccc2c(c1)CN(C(=O)CCC(=O)OCc1ccccc1)c1ccc(C)cc1CN2C(=O)CCC(=O)OCc1ccccc1 | 62.6 µM |
| CC(=O)N1C/C(=C\c2ccc(N(C)C)cc2)C(=O)/C(=C/c2ccc(N(C)C)cc2)C1 | 49.4 µM |
| Cc1[nH]c2ccccc2c1C1Cc2ccccc2N1C(=O)/C(Cl)=C/c1ccccc1 (configuration not stated) | 99.6 µM |

Each compound was assayed on SF-268 CNS (assay: DTP human tumour cell line panel, 48 h).

| Compound | TGI | GI50 |
| --- | --- | --- |
| O=C(/C=C/c1c(O)ccc2ccccc12)c1ccccc1 | > 100 µM | – |
| Cc1nc2ccccc2c(=O)n1-c1ccccc1F | > 100 µM | – |
| CC(C)N1CN(C(C(=O)N[C@@H]2C(=O)N3C2SC(C)(C)C3C(=O)O)c2ccccc2)CSC1=S (some centres not stated) | > 100 µM | – |
| CC(C)c1cc2c(O)c(c1)Cc1cc(C(C)C)cc(c1O)Cc1cc(C(C)C)cc(c1O)Cc1cc(C(C)C)cc(c1O)C2 | > 100 µM | – |
| COc1ccc(/C=C\c2cc(OC)c(OC)c(OC)c2)cc1OC(=O)NCCN(C)C | – | 33.6 nM |
| COc1ccc(CNc2nc3cc(C(F)(F)F)ccc3nc2C)cc1OC | > 100 µM | – |
| COc1cccc(/C=C2\C(=O)N(C(=O)c3ccc(NC(C)=O)cc3)N=C2C)c1 | > 100 µM | – |
| COC(C(O)c1ccc2c(c1)OCO2)P(=O)(c1ccccc1)c1ccccc1 (configuration not stated) | > 100 µM | – |
| N#C/C(=C\c1cc2ccccc2c2ccccc12)c1ccccc1 | > 53.9 µM | – |
| CCOc1ccc2c(c1)[n+]([O-])c(-c1nc3ccccc3s1)c(N)[n+]2[O-] | > 100 µM | – |
| CS(=O)(=O)c1cc(=O)c2ccccc2s1 | 32.1 µM | – |
| Cc1ccc2c(c1)CN(C(=O)CCC(=O)OCc1ccccc1)c1ccc(C)cc1CN2C(=O)CCC(=O)OCc1ccccc1 | > 100 µM | – |
| CC(=O)N1C/C(=C\c2ccc(N(C)C)cc2)C(=O)/C(=C/c2ccc(N(C)C)cc2)C1 | > 100 µM | – |
| Cc1[nH]c2ccccc2c1C1Cc2ccccc2N1C(=O)/C(Cl)=C/c1ccccc1 (configuration not stated) | > 100 µM | – |

These compounds were tested on DU-145 prostate (assay: DTP human tumour cell line panel, 48 h).

| Compound | TGI |
| --- | --- |
| COc1ccc(/C=C\c2cc(OC)c(OC)c(OC)c2)cc1OC(=O)NCCN(C)C | 0.043 µM |
| CS(=O)(=O)c1cc(=O)c2ccccc2s1 | 33.3 µM |
| Cc1ccc2c(c1)CN(C(=O)CCC(=O)OCc1ccccc1)c1ccc(C)cc1CN2C(=O)CCC(=O)OCc1ccccc1 | > 100 µM |

Each compound was assayed on M19-MEL melanoma (assay: DTP human tumour cell line panel, 48 h).

| Compound | TGI |
| --- | --- |
| Cc1ccc(-c2cc(=O)c3cc(C)c(C)c(C(=O)O)c3o2)cc1C | > 100 µM |
| O=C(/C=C/c1c(O)ccc2ccccc12)c1ccccc1 | > 100 µM |
| Cc1nc2ccccc2c(=O)n1-c1ccccc1F | > 100 µM |
| CC(C)N1CN(C(C(=O)N[C@@H]2C(=O)N3C2SC(C)(C)C3C(=O)O)c2ccccc2)CSC1=S (some centres not stated) | > 100 µM |
| CC(C)c1cc2c(O)c(c1)Cc1cc(C(C)C)cc(c1O)Cc1cc(C(C)C)cc(c1O)Cc1cc(C(C)C)cc(c1O)C2 | > 100 µM |
| COc1ccc(/C=C\c2cc(OC)c(OC)c(OC)c2)cc1OC(=O)NCCN(C)C | 20.1 µM |
| COc1ccc(CNc2nc3cc(C(F)(F)F)ccc3nc2C)cc1OC | > 100 µM |
| COc1cccc(/C=C2\C(=O)N(C(=O)c3ccc(NC(C)=O)cc3)N=C2C)c1 | > 100 µM |
| COC(C(O)c1ccc2c(c1)OCO2)P(=O)(c1ccccc1)c1ccccc1 (configuration not stated) | > 100 µM |
| N#C/C(=C\c1cc2ccccc2c2ccccc12)c1ccccc1 | > 100 µM |
| CCOc1ccc2c(c1)[n+]([O-])c(-c1nc3ccccc3s1)c(N)[n+]2[O-] | > 100 µM |
| CS(=O)(=O)c1cc(=O)c2ccccc2s1 | 18.3 µM |
| Cc1ccc2c(c1)CN(C(=O)CCC(=O)OCc1ccccc1)c1ccc(C)cc1CN2C(=O)CCC(=O)OCc1ccccc1 | > 100 µM |
| CC(=O)N1C/C(=C\c2ccc(N(C)C)cc2)C(=O)/C(=C/c2ccc(N(C)C)cc2)C1 | > 100 µM |
| Cc1[nH]c2ccccc2c1C1Cc2ccccc2N1C(=O)/C(Cl)=C/c1ccccc1 (configuration not stated) | > 100 µM |

Each compound was assayed on MOLT-4 leukemia (assay: DTP human tumour cell line panel, 48 h).

| Compound | TGI |
| --- | --- |
| Cc1ccc(-c2cc(=O)c3cc(C)c(C)c(C(=O)O)c3o2)cc1C | > 100 µM |
| O=C(/C=C/c1c(O)ccc2ccccc12)c1ccccc1 | > 100 µM |
| Cc1nc2ccccc2c(=O)n1-c1ccccc1F | > 100 µM |
| CC(C)N1CN(C(C(=O)N[C@@H]2C(=O)N3C2SC(C)(C)C3C(=O)O)c2ccccc2)CSC1=S (some centres not stated) | > 100 µM |
| CC(C)c1cc2c(O)c(c1)Cc1cc(C(C)C)cc(c1O)Cc1cc(C(C)C)cc(c1O)Cc1cc(C(C)C)cc(c1O)C2 | > 100 µM |
| COc1ccc(/C=C\c2cc(OC)c(OC)c(OC)c2)cc1OC(=O)NCCN(C)C | < 0.0494 µM |
